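1) Cells in 96-well plates. 2) Compound, 48 h, 5 concentrations. 3) Linear interpolation between surrounding doses. 4) Unreached endpoint = highest concentration. Abbreviation: GI50, concentration required for 50% inhibition of growth. TGI marks complete inhibition of growth.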
Tests used:
Assay in all cases: DTP human tumour cell line panel, 48 h
EKVX NSCLC = tested on: EKVX NSCLC
HL-60(TB) leukemia = tested on: HL-60(TB) leukemia
HOP-92 NSCLC = tested on: HOP-92 NSCLC
SF-268 CNS = tested on: SF-268 CNS
786-0 renal = tested on: 786-0 renal
MCF7 breast = tested on: MCF7 breast
SK-MEL-2 melanoma = tested on: SK-MEL-2 melanoma
A498 renal = tested on: A498 renal
UACC-62 melanoma = tested on: UACC-62 melanoma
LOX IMVI melanoma = tested on: LOX IMVI melanoma
TK-10 renal = tested on: TK-10 renal
NCI-H460 lung = tested on: NCI-H460 lung
A549 NSCLC = tested on: A549 NSCLC
T-47D breast = tested on: T-47D breast
OVCAR-8 ovarian = tested on: OVCAR-8 ovarian
U251 CNS = tested on: U251 CNS
MDA-MB-231 breast = tested on: MDA-MB-231 breast
DU-145 prostate = tested on: DU-145 prostate
SK-MEL-5 melanoma = tested on: SK-MEL-5 melanoma
PC-3 prostate = tested on: PC-3 prostate
SF-539 CNS = tested on: SF-539 CNS
UO-31 renal = tested on: UO-31 renal
BT-549 breast = tested on: BT-549 breast
SF-295 CNS = tested on: SF-295 CNS
ACHN renal = tested on: ACHN renal
NCI-H226 lung = tested on: NCI-H226 lung
SN12C renal = tested on: SN12C renal
IGROV1 ovarian = tested on: IGROV1 ovarian
SW-620 colon = tested on: SW-620 colon
HT29 colon = tested on: HT29 colon
SR leukemia = tested on: SR leukemia
HCT-116 colon = tested on: HCT-116 colon
OVCAR-3 ovarian = tested on: OVCAR-3 ovarian
CCRF-CEM leukemia = tested on: CCRF-CEM leukemia
OVCAR-5 ovarian = tested on: OVCAR-5 ovarian
HS 578T breast = tested on: HS 578T breast
KM12 colon = tested on: KM12 colon
SK-OV-3 ovarian = tested on: SK-OV-3 ovarian
HCC-2998 colon = tested on: HCC-2998 colon
HOP-62 NSCLC = tested on: HOP-62 NSCLC
OVCAR-4 ovarian = tested on: OVCAR-4 ovarian
NCI-H522 lung = tested on: NCI-H522 lung
NCI/ADR-RES ovarian = tested on: NCI/ADR-RES ovarian
MOLT-4 leukemia = tested on: MOLT-4 leukemia
SNB-19 CNS = tested on: SNB-19 CNS
HCT-15 colon = tested on: HCT-15 colon
SK-MEL-28 melanoma = tested on: SK-MEL-28 melanoma
NCI-H23 lung = tested on: NCI-H23 lung

CCOC(=O)c1cc(C(=O)c2cc(OC)c(OC)c(OC)c2)n2nc(C)ccc12
GI50 (EKVX NSCLC): 0.479 µM | TGI (EKVX NSCLC): > 100 µM | GI50 (HL-60(TB) leukemia): 0.16 µM | TGI (HL-60(TB) leukemia): 0.588 µM | GI50 (HOP-92 NSCLC): 3.52 µM | TGI (HOP-92 NSCLC): > 100 µM | GI50 (SF-268 CNS): 0.55 µM | TGI (SF-268 CNS): > 100 µM | GI50 (786-0 renal): 0.335 µM | TGI (786-0 renal): > 100 µM | GI50 (MCF7 breast): 0.0481 µM | TGI (MCF7 breast): > 100 µM | GI50 (SK-MEL-2 melanoma): 0.495 µM | TGI (SK-MEL-2 melanoma): > 100 µM | GI50 (A498 renal): 0.0762 µM | TGI (A498 renal): 0.931 µM | GI50 (UACC-62 melanoma): 0.0615 µM | TGI (UACC-62 melanoma): > 100 µM | GI50 (LOX IMVI melanoma): 0.498 µM | TGI (LOX IMVI melanoma): > 100 µM | GI50 (TK-10 renal): > 100 µM | TGI (TK-10 renal): > 100 µM | GI50 (NCI-H460 lung): 0.133 µM | TGI (NCI-H460 lung): > 100 µM | GI50 (A549 NSCLC): 0.223 µM | TGI (A549 NSCLC): > 100 µM | GI50 (T-47D breast): > 100 µM | TGI (T-47D breast): > 100 µM | GI50 (OVCAR-8 ovarian): 0.518 µM | TGI (OVCAR-8 ovarian): > 100 µM | GI50 (U251 CNS): 0.331 µM | TGI (U251 CNS): > 100 µM | GI50 (MDA-MB-231 breast): 0.524 µM | TGI (MDA-MB-231 breast): > 100 µM | GI50 (DU-145 prostate): 0.391 µM | TGI (DU-145 prostate): > 100 µM | GI50 (SK-MEL-5 melanoma): 0.0585 µM | TGI (SK-MEL-5 melanoma): 3.32 µM | GI50 (PC-3 prostate): 0.0939 µM | TGI (PC-3 prostate): > 100 µM | GI50 (SF-539 CNS): 0.13 µM | TGI (SF-539 CNS): 0.771 µM | GI50 (UO-31 renal): 0.452 µM | TGI (UO-31 renal): > 100 µM | GI50 (BT-549 breast): 0.878 µM | TGI (BT-549 breast): > 100 µM | GI50 (SF-295 CNS): 0.0657 µM | TGI (SF-295 CNS): > 100 µM | GI50 (ACHN renal): 0.524 µM | TGI (ACHN renal): > 100 µM | GI50 (NCI-H226 lung): 45 µM | TGI (NCI-H226 lung): > 100 µM | GI50 (SN12C renal): 0.665 µM | TGI (SN12C renal): > 100 µM | GI50 (IGROV1 ovarian): 0.379 µM | TGI (IGROV1 ovarian): > 100 µM | GI50 (SW-620 colon): 0.0687 µM | TGI (SW-620 colon): > 100 µM | GI50 (HT29 colon): 0.133 µM | TGI (HT29 colon): > 100 µM | GI50 (SR leukemia): 0.0481 µM | TGI (SR leukemia): > 100 µM | GI50 (HCT-116 colon): 0.164 µM | TGI (HCT-116 colon): > 100 µM | GI50 (OVCAR-3 ovarian): 0.0648 µM | TGI (OVCAR-3 ovarian): 1.27 µM | GI50 (CCRF-CEM leukemia): 0.212 µM | TGI (CCRF-CEM leukemia): > 100 µM | GI50 (OVCAR-5 ovarian): 0.472 µM | TGI (OVCAR-5 ovarian): > 100 µM | GI50 (HS 578T breast): 0.19 µM | TGI (HS 578T breast): > 100 µM | GI50 (KM12 colon): 0.0577 µM | TGI (KM12 colon): > 100 µM | GI50 (SK-OV-3 ovarian): 0.546 µM | TGI (SK-OV-3 ovarian): > 100 µM | GI50 (HCC-2998 colon): 0.493 µM | TGI (HCC-2998 colon): > 100 µM | GI50 (HOP-62 NSCLC): 0.398 µM | TGI (HOP-62 NSCLC): > 100 µM | GI50 (OVCAR-4 ovarian): 1.72 µM | TGI (OVCAR-4 ovarian): > 100 µM | GI50 (NCI-H522 lung): 0.171 µM | TGI (NCI-H522 lung): > 100 µM | GI50 (NCI/ADR-RES ovarian): 0.123 µM | TGI (NCI/ADR-RES ovarian): 1.93 µM | GI50 (MOLT-4 leukemia): 0.396 µM | TGI (MOLT-4 leukemia): > 100 µM | GI50 (SNB-19 CNS): 0.42 µM | TGI (SNB-19 CNS): > 100 µM | GI50 (HCT-15 colon): 0.0844 µM | TGI (HCT-15 colon): > 100 µM | GI50 (SK-MEL-28 melanoma): 12 µM | TGI (SK-MEL-28 melanoma): > 100 µM | GI50 (NCI-H23 lung): 0.418 µM | TGI (NCI-H23 lung): > 100 µM

— PubChem BioAssay (NCI)
